Data from US11129861B2, “Methods for treating inflammatory diseases” (OKCHUNDANG CO., LTD., priority 2017, dated 2021).
Marks after values point to notes of the source that are not given here.

Tests used:
[1] = test system: xylene topically applied mice; assay: Anti-inflammatory assay: ear histopathology; type: in vivo; conditions: 50 mg/kg orally, 11 days; xylene topically applied mice
Experimental: AR, KOG and SKOG were orally administered as same as antitussive and expectorant assays, once a day for 11 days before xylene topical applications. In addition, DEXA-water soluble granules were dissolved indistilled water as 1.5 mg/ml concentrations (0.1 mg/ml based on DEXA itself), and also orally administered in a volume of 10 ml/kg (as equivalence to 1 mg/kg based on DEXA itself), once a day for 11 days before xylene topical applications. In intact vehicle and xylene control mice, distilled water 10 ml/kg was orally administered, instead of AR, KOG, SKOG or DEXA to provide same restrain stresses, in the present experiment.
Acute inflammations were induced by single topical application of 0.03 ml of xylene (Duksan Pure Chemical Co. Ltd., Ansan, Korea) to the anterior surface of the right ear at 1 hour after last 11th test substance administration, as described previously with some modifications. Equal volume of saline was topically applied in intact vehicle mouse ears, instead of xylene, in our experiment.
After ear weight measurement, individual ear samples were fixed in 10% NBF, and crossly trimmed. Then embedded in paraffin, sectioned (3˜4 μm) and stained with Hematoxylin and eosin (H&E) for general histopathology or toluidine blue for mast cells, and after that the histopathological profiles of each sample were observed under light microscope. To more detail changes, mean total, epidermis and dermis thicknesses of the ear anterior surface, numbers of infiltrated inflammatory cells and mast cells on the dermis of ear (cells/mm^2), collagen occupied region percentages on the dermis (%/mm2) were analyzed using a computer assisted image analysis program, according to previously established methods, respectively. The histopathologist was blinds to group distribution when this analysis was made, and at least five repeated measurements in same histological specimens prepared were considered to calculate each mean histomorphometrical value, whenever possible, in this histopathological evaluation.

[2] = test system: NH4OH exposured mice; assay: Antitussive assay: NH4OH-induced coughing responses; type: in vivo; conditions: 50 mg/kg orally, 11 days; compared with NH4OH control mice
Experimental: NH4OH treated mice: 34.17±1.32 g, ranged in 31.0-37.3 g), as follows. SKOG were suspended in distilled water as 40, 20 and 10 mg/ml concentration, and orally administered in a volume of 10 ml/kg (as equivalence to 400, 200 and 100 mg/kg), once a day for 11 days before NH4OH exposure. In addition, AR and KOG were also suspended in distilled water as 40 mg/ml concentration, and orally administered in a volume of 10 ml/kg (as equivalence to 400, 200 and 100 mg/kg), once a day for 11 days before NH4OH exposure. TB was also dissolved in distilled water as 5 mg/ml concentrations, and also orally administered in a volume of 10 ml/kg (as equivalence to 50 mg/kg), once a day for 11 days before NH4OH exposure. In intact vehicle and NH4OH control mice, distilled water 10 ml/kg was orally administered, instead of AR, KOG, SKOG or TB to provide same restrain stresses, in the present experiment. Coughing was induced by single inhalation of 25% NH4OH (Sigma-Aldrich, St. […] Individual intact vehicle control mouse was exposured to 0.3 ml of saline contained 1,000 ml glass Erlenmeyer flask for 45 sec, instead of NH4OH, in this experiment. The criteria to define cough in mice is that opening the mouth accompanying sound of coughing, contraction of thoracic and abdomen muscles, and a jerking of the front body.

[3] = Body weight measurements, antitussive assay; type: in vivo, mice; conditions: 50 mg/kg orally
Experimental: One-hundred thirty two 6-week male SPF/VAF CrljOri:CD1 [ICR] mice (OrientBio, Seungnam, Korea; body weight ranged in 29-32 g upon receipt) were prepared, and eight groups of 10 mice each were selected based on the body weights at 7 days after acclimatization based on the body weights (intact control: 34.30±1.74 g, ranged in 31.8-37.0 g; NH4OH treated mice: 34.17±1.32 g, ranged in 31.0-37.3 g), as follows.
SKOG were suspended in distilled water as 40, 20 and 10 mg/ml concentration, and orally administered in a volume of 10 ml/kg (as equivalence to 400, 200 and 100 mg/kg), once a day for 11 days before NH4OH exposure. In addition, AR and KOG were also suspended in distilled water as 40 mg/ml concentration, and orally administered in a volume of 10 ml/kg (as equivalence to 400, 200 and 100 mg/kg), once a day for 11 days before NH4OH exposure. TB was also dissolved in distilled water as 5 mg/ml concentrations, and also orally administered in a volume of 10 ml/kg (as equivalence to 50 mg/kg), once a day for 11 days before NH4OH exposure. In intact vehicle and NH4OH control mice, distilled water 10 ml/kg was orally administered, instead of AR, KOG, SKOG or TB to provide same restrain stresses, in the present experiment.
Changes of body weight were measured at once a day from 1 day before initial to end of last 11th oral administration of AR, KOG, SKOG or TB using an automatic laboratory animal weighing electronic balance (Precisa Instrument, Dietikon, Switzland). Animals were overnight fasted (about 18 hours, water was not restricted) before initial test substance administration and sacrifice to reduced individual differences from feeding, and also to reduce the individual body weight differences at start of experiment, the body weight gains during 11 days of oral administration of AR, KOG, SKOG or TB were calculated as follow Equation [1], in the current experiment. Body weight gains during 11 days of oral administration of test substances[B−A]=Body weights at last administration[B]−Body weights at first administration[A] Equation [1]

[4] = test system: NH4OH exposured mice; assay: Antitussive assay: trachea and lung histopathology; type: in vivo; conditions: 50 mg/kg orally, 11 days
Experimental: SKOG were suspended in distilled water as 40, 20 and 10 mg/ml concentration, and orally administered in a volume of 10 ml/kg (as equivalence to 400, 200 and 100 mg/kg), once a day for 11 days before NH4OH exposure. In addition, AR and KOG were also suspended in distilled water as 40 mg/ml concentration, and orally administered in a volume of 10 ml/kg (as equivalence to 400, 200 and 100 mg/kg), once a day for 11 days before NH4OH exposure. TB was also dissolved in distilled water as 5 mg/ml concentrations, and also orally administered in a volume of 10 ml/kg (as equivalence to 50 mg/kg), once a day for 11 days before NH4OH exposure. In intact vehicle and NH4OH control mice, distilled water 10 ml/kg was orally administered, instead of AR, KOG, SKOG or TB to provide same restrain stresses, in the present experiment. After video image acquirement, some parts of individual lung (left lateral lobes) and trachea (3 mm from thyroid cartilages) were sampled and fixed in 10% neutral buffered formalin (NBF), and crossly trimmed. Then embedded in paraffin, sectioned (3˜4 μm) and stained with Hematoxylin and eosin (H&E) for general histopathology or toluidine blue for mast cells, and after that the histopathological profiles of each sample were observed under light microscope (Model Eclipse 80i, Nikon, Tokyo, Japan). […] The histopathologist was blinds to group distribution when this analysis was made, and at least five repeated measurements in same histological specimens prepared were considered to calculate each mean histomorphometrical value, whenever possible, in this histopathological evaluation (FIG. 4).

[5] = compared with NH4OH control mice

For `Cn1cnc2c1c(=O)[nH]c(=O)n2C` [TB, theobromine], the “Cells Inflammatory (ear dermis)” value [1] was 10.10 ± 10.54^fh Numbers/mm^2, the “Cells Mast (ear dermis)” value [1] was 61.30 ± 12.65^c Numbers/mm^2 and the Collagen fiber [1] was 77.43 ± 12.79^h %/mm^2 of dermis. The “Thickness Dermis (ear)” value [1] was 52.33 ± 13.72^h μm, the “Thickness Epidermis (ear)” value [1] was 8.50 ± 1.65 μm and the “Thickness Total (ear)” value [1] was 99.55 ± 9.57^h μm. The “Mean numbers of coughing responses during 6 min after 45 sec exposure of NH4OH, change” value [2] was −59.04%, the “Body weight gains (g) [B − A]” value ([3]; 11 days, NH4OH exposured mice) was 1.71 ± 0.97 g and the “Body weights (g) at test material administration First [A]” value ([3]; 11 days, NH4OH exposured mice) was 29.23 ± 1.49 g. The “Body weights (g) at test material administration Last [B]” value ([3]; 11 days, NH4OH exposured mice) was 30.94 ± 1.77 g, the “body weight gains during 11 days, change” value [3, 5] was 2.40% and the “Cells Inflammatory (trachea)” value ([4]; NH4OH exposured mice) was 167.40 ± 40.26^hi Numbers/mm^2. The “Cells Mast (trachea)” value ([4]; NH4OH exposured mice) was 14.30 ± 4.60^hi Numbers/mm^2, the “Diameter of lumen (trachea)” value ([4]; NH4OH exposured mice) was 860.11 ± 100.75^ac μm and the “Thickness Epithelium (trachea)” value ([4]; NH4OH exposured mice) was 24.21 ± 4.36^hi μm. For the same molecule, the “Thickness Submucosa (trachea)” value ([4]; NH4OH exposured mice) was 47.31 ± 11.39^hi μm, the “Thickness Total wall (trachea)” value ([4]; NH4OH exposured mice) was 191.23 ± 10.24^hi μm and the Alveolar surface area ([4]; NH4OH exposured mice, lung) was 51.13 ± 5.95^ac %. The Septum thickness ([4]; NH4OH exposured mice, lung) was 30.53 ± 10.06^gh μm, the “inflammatory cells (alveolar septum)” value ([4]; NH4OH exposured mice, lung) was 492.00 ± 114.18^gh numbers/mm^2 and the “Mean ASA, change” value [4, 5] was 65.26%. The “Mean diameters of trachea lumen, change” value [4, 5] was 30.60%, the “Mean numbers of infiltrated inflammatory cells on the alveolar septum, change” value [4, 5] was −73.92% and the “Mean numbers of infiltrated inflammatory cells on the trachea, change” value [4, 5] was −62.74%. For the same molecule, the “Mean numbers of infiltrated mast cells on the trachea, change” value [4, 5] was −63.05%, the “Mean thicknesses of alveolar septum, change” value [4, 5] was −57.84% and the “Mean thicknesses of trachea epithelium, change” value [4, 5] was −35.48%. For the same molecule, the “Mean thicknesses of trachea submucosa, change” value [4, 5] was −47.27% and the “Mean thicknesses of trachea wall, change” value [4, 5] was −13.23%.
